Experimental data from patent publication US12220391B2, “Compositions and methods of use of β-hydroxy-β-methylbutyrate (HMB) for modulating autophagy and lipophagy” (Metabolic Technologies, LLC, priority 2016, dated 2025).

Legend:
[1] = tested on: mTOR; conditions: in vitro, through mTOR phosphorylation; cited from earlier work
[2] = tested on: adipose triglyceride lipase (ATGL); assay: ATGL gene expression in differentiated adipocytes; assay type: cell-based; conditions: HMB, 96 hours, n=6, p<0.05
Protocol: (§1) Differentiated adipocytes were treated with HMB in regular growth medium for determination of lipolysis and gene expression. The adipocytes were pretreated for 48 hours with 1 mM HMB (n=4), resulting in basal and 1 uM isoproterenol stimulated lipolysis (FIG. 3A).

[3] = tested on: ATG7; assay: ATG7 gene expression (qPCR) in primary human skeletal muscle myotubes; assay type: cell-based; conditions: HMB 1 mM, 4 days, HSMM myotubes, qPCR normalized to 36B4, n=6
Protocol: Cultured primary human skeletal muscle cells (HSMM, Lonza) were grown to confluence and differentiated into myotubes. The cells were then supplemented with HMB (1 mM) for 4 days (n=6 for treatment or control groups) with a medium change every other day. Gene expression (mRNA) was determined at the end of the treatment by quantitative polymerase chain reaction (qPCR). For normalization, the mRNA signal was adjusted to the co-amplified signal of the ribosomal protein 36B4.

[4] = tested on: ubiquitin-proteosome proteolytic pathway; conditions: muscle protein catabolism stimulated by PIF, LPS and angiotensin II; cited from earlier work
[5] = healthy young or old adults; cited from earlier work
[6] = tested on: plasma CPK (creatine phosphokinase); conditions: following intense exercise, within the first 48 hrs of supplementation; cited from earlier work
[7] = tested on: AMPK; assay: AMPK activation (phosphorylated AMPK substrates, total AMPK) in primary human adipocytes; assay type: cell-based; conditions: 1 mM HMB, 96 hours
Protocol: A line of subcutaneous preadipocytes isolated from normal humans (non-diabetic controls) was used. These cells differentiate well (see FIG. 4) and provide a good in vitro model for studying effects of HMB on lipophagy. […] Differentiated adipocytes (14 days post confluence) were treated for 4 days with 1 mM HMB supplemented in normal growth medium. Lysates were probed with an antibody (Cell Signal Technologies) directed against AMPK phosphorylated substrates (consensus motif LCRXXpS/pT) to obtain a broad evaluation of AMPK activation and total AMPK levels were also measured. […] The cells were lysed and probed for phosphorylated targets of AMPK and for total AMPK levels (FIG. 5B).

[8] = tested on: differentiated adipocytes; assay: Lipolysis in differentiated adipocytes; assay type: cell-based; conditions: pretreated 48 hours with 1 mM HMB; basal and 1 uM isoproterenol; n=4
Protocol: as §1

[9] = tested on: AMPK; assay: AMPK activation in HEK293 cells; assay type: cell-based; conditions: similarly treated HEK293 cells (data not shown)
[10] = tested on: Primary preadipocytes; assay: Dual-labeled LC3 (DsRed/GFP) imaging of autophagy in primary preadipocytes; assay type: cell-based; conditions: 1 mM HMB, 4 days
Protocol: A primary adipocyte cell based assay for visualizing HMB activated lipophagy was developed. Primary preadipocytes were cultured on glass coverslips and treated with HMB for four days in regular growth medium. Cells were fixed and mounted with DAPI-containing medium and imaged with 60× objective. Autophagy vesicles are in red with degradation of green signal indicative of autophagy activation (FIG. 7). Nuclei are stained in blue (FIG. 7). A dual-labeled LC3 retroviral expression contrast was used to generate recombinant retrovirus using 293GPG cells. Primary preadipocytes were infected with the viral particles and, starting with four days after infection, selected with geneticin for two weeks prior to the imaging experiments. The LC3 fusion construct labels the autophagosomes and harbors dual signals; DsRed and GFP green probes. In the basal state there is co-localization of the green and red signals resulting in a yellow signal in the merged panel (FIG. 7 top panel with no HMB). When autophagy is activated, the GFP probe is cleaved from LC3 by ATG4 and degraded resulting in loss of the green signal and in absence of the co-localization in the merged panel. The initial studies used preadipocytes infected with the LC3 containing retrovirus and treated or not treated for 4 days with 1 mM HMB (FIG. 7, top: no HMB, bottom +HMB).

[11] = tested on: caspases-3 and -8 proteases; conditions: cited from earlier work
[12] = tested on: muscle cells (HSMM); assay: Phosphor protein array, HSMM muscle cells; assay type: cell-based, human; conditions: HMB-treated HSMM muscle cells
Protocol: (§2) Lysates from HMB-treated muscle (HSMM) and adipocytes (SGBS) were analyzed using a phosphor protein array. Many mTOR targets were regulated in both cell system (FIG. 8). Increases in CREB phosphorylation on serine 133 on a signaling protein array using SGBS adipocytes treated HMB was seen (FIG. 8). Thus, the activating phosphorylation of CREB at S133 mediates induction of TFEB in these adipocytes and this pathway results in the upregulation of autophagy.

[13] = tested on: BNIP3; assay: BNIP3 gene expression in human primary adipocytes; assay type: cell-based; conditions: 1 mM HMB, 96 hours, n=3, p<0.05
Excerpt: (§3) These transcription factors represent two different autophagy pathways.

[14] = tested on: autophagy related protein (ATG7); assay: ATG7 gene expression in differentiated adipocytes; assay type: cell-based; conditions: HMB, 96 hours, n=6, p<0.05
Protocol: as §1

[15] = tested on: TFEB; assay: TFEB gene expression in human primary adipocytes; assay type: cell-based; conditions: 1 mM HMB, 96 hours, n=3, p<0.05
Excerpt: as §3

[16] = after HMB is fed; cited from earlier work
[17] = tested on: adipocytes (SGBS); assay: Phosphor protein array, SGBS adipocytes; assay type: cell-based; conditions: HMB-treated SGBS adipocytes
Protocol: as §2

[18] = compared with CaHMB; cited from earlier work

SMILES: CC(C)(O)CC(=O)O [HMB, β-hydroxy-β-methylbutyric acid]
- protein synthesis [1]: stimulates
- ATGL gene expression [2]: significantly increased
- ATG7 gene expression (mRNA) [3]: Significant (p<0.01) upregulation
- proteolysis [4]: decreases
- side effects [5]: no side effects
- muscle damage measured by elevated plasma CPK [6]: reduced
- total AMPK levels [7]: not significantly changed
- AMPK substrate phosphorylation intensity ([7]; densitometry, n=3, p<0.01): significant increase
- lipolysis (basal and isoproterenol stimulated) [8]: activates
- AMPK substrate phosphorylation increase [9]: not observed
- size of autophagic puncta [10]: significant increases
- LC3 GFP green signal and green/red co-localization ([10]; preadipocytes infected with LC3 retrovirus): Loss of green signals and absence of green/red co-localization
- activation of caspases-3 and -8 proteases [11]: attenuates
- RSK 1/2/3 phosphorylation at the mTOR site (S473) [12]: significant reduction
- activation of STAT3 [12]: reduced activation
- activation of p53 [12]: reduced activation
- mTOR activity [12]: inhibition
- p70 S6 kinase phosphorylation at several threonine p-sites [12]: significant reduction
- BNIP3 mRNA levels [13]: increased
- ATG7 gene expression [14]: significantly increased
- TFEB mRNA levels [15]: increased
- loss of HMB to urine [16]: 20-50%
- CREB phosphorylation (serine 133) [17]: enhanced
- HSP27 phosphorylation [17]: enhanced
- Yes kinase phosphorylation [17]: Enhanced
- activation of p53 [17]: Reduced activation
- activation of pSTAT3 [17]: Reduced activation
- activity of the mTOR pathway [17]: Reduced activity

SMILES: CC(C)(O)CC(=O)O [HMB free acid, β-hydroxy-β-methylbutyric acid]
- absorption [18]: absorbed quicker
- tissue clearance [18]: greater tissue clearance
